Results from patent US9145415B2, “Nitrogen-containing heterocyclic compound or salt thereof” (FUJIFILM Corporation, priority 2012, dated 2015).
Where two headings read alike, the source gives them in different places.

How the values were obtained:
[1] = molecular target: T1, human FLT3 protein (FLT3 (WT)) (Homo sapiens, UniProt P36888); assay: FLT3 inhibition test (FLT3 enzyme inhibition, time-resolved fluorescence of substrate peptide phosphorylation); format: biochemical; conditions: read-out: FLT3 (WT) enzyme inhibition activity
T1 construct: human FLT3 protein (intracellular region, 564 to 993 aa); GST; purchased Carna Biosciences; host or cells: baculovirus expression system
T1 sequence (P36888 564-993): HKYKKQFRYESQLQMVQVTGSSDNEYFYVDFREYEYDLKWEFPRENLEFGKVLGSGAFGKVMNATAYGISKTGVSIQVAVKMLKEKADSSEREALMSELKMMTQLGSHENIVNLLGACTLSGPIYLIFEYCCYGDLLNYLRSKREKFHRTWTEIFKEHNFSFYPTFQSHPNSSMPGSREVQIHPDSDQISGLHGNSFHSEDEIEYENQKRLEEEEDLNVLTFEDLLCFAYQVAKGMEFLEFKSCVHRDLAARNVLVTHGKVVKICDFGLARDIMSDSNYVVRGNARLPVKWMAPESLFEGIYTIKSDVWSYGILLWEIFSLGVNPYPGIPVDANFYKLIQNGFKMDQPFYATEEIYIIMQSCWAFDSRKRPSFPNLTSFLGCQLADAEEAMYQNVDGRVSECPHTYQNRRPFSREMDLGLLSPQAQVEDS
In short: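 Substrate peptide phosphorylation detected by time-resolved fluorescence after a 30 min kinase reaction at 25° C with 50 μM ATP (final). Beforehand, compound and FLT3 (WT, 1.2 μg) stood 15 min at 25° C in HEPES buffer pH 7.5 containing MgCl2, NaCl, BSA and DTT.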

Molm-13 cells = assay: Leukemia cell proliferation inhibition test (ATPlite), Molm-13; format: cell-based; conditions: read-out: MOLM13 cell proliferation inhibition effect
In short: (§1)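 Luminescent ATP read-out (firefly luciferase) used as a total cell count after 72 h compound exposure at 37° C, 5% CO2. Cells: 10,000/well in RPMI + 10% FBS. GI50 = 50% inhibition relative to 0.1% DMSO, from a sigmoid dose-response fit; duplicates.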

MV4-11 cells = assay: Leukemia cell proliferation inhibition test (ATPlite), MV4-11; format: cell-based; conditions: read-out: MV4-11 cell proliferation inhibition effect
In short: as §1

[2] = GST-fused human FLT3 (564 to 993 aa), ATP 50 μM
[3] = Homo sapiens, MOLM-13, 72 h, Molm-13, 72 hours culture, ATPlite, GI50 per method
[4] = Homo sapiens, MV4-11, 72 h, MV4-11, 72 hours culture, ATPlite, GI50 per method
[5] = Homo sapiens, MOLM-13, MOLM13 cell
[6] = Homo sapiens, MV4-11, MV4-11 cell

| Compound | IC50 [1, 2] [nM] | IC50 (Molm-13 cells; [3]) [nM] | IC50 (MV4-11 cells; [4]) [nM] | IC50 ([1]; FLT3 (WT)) [nM] | IC50 (Molm-13 cells; [5]) [nM] | IC50 (MV4-11 cells; [6]) [nM] | IC50 (Molm-13 cells; Molm-13, 72 hours culture, ATPlite, GI50 per method) [nM] | IC50 (MV4-11 cells; MV4-11, 72 hours culture, ATPlite, GI50 per method) [nM] |
| --- | --- | --- | --- | --- | --- | --- | --- | --- |
| CCCNc1nc(Nc2cccc(F)c2)ncc1C#CCCCNC(=O)[C@@H]1C[C@@H](O)CN1C(=O)/C=C/CN(C)C [Compound 7-66, (2S,4R)-1-((E)-4-(Dimethylamino)-2-butenoyl)-N-(5-(2-((3-fluorophenyl)amino)-4-(propylamino)pyrimidin-5-yl)-4-pentyn-1-yl)-4-hydroxypyrrolidine-2-carboxamide] | < 10 | < 10 | < 10 | – | – | – | – | – |
| CCCNc1nc(Nc2ccc3c(OC)n[nH]c3c2)ncc1C#CCCCNC(=O)[C@H](C)N(C)C(=O)/C=C/CN(C)C [Compound 22-65] | – | – | – | < 10 | < 10 | < 10 | – | – |
| CCCNc1nc(Nc2ccc(F)cc2)ncc1C#C[C@@H]1CCC[C@H](NC(=O)[C@H](C)N(C)C(=O)/C=C/CN(C)C)C1 [Compound 21-40] | – | – | – | < 10 | < 10 | < 10 | – | – |
| CCCNc1nc(Nc2cccc(F)c2)ncc1C#CCCCNC(=O)[C@@H]1CCCN1C(=O)/C=C/CN(C)C [Compound 8-15] | 10 to 100 | – | – | – | – | – | 100 to 1000 | 100 to 1000 |
| C=CC(=O)N(C)CC(=O)NCCCNC(=O)c1cnc(NC(=O)Nc2ccncc2)nc1NCCC [Compound 6-12] | < 10 | 100 to 1000 | 10 to 100 | – | – | – | – | – |
| CCCNc1nc(Nc2ccc3nn(C)cc3c2)ncc1C#CCCCNC(=O)[C@H](C)N(C)C(=O)/C=C/CN(C)C [Compound 21-7] | < 10 | < 10 | < 10 | – | – | – | – | – |
| CNc1nc(Nc2ccc(F)cc2)ncc1C#C[C@@H]1CCC[C@H](NC(=O)[C@H](C)N(C)C(=O)/C=C/CN(C)C)C1 [Compound 21-41] | – | – | – | < 10 | < 10 | < 10 | – | – |
| CNc1nc(Nc2cccc(F)c2)ncc1C#CCCCNC(=O)[C@@H]1C[C@H](O)CN1C(=O)/C=C/CN(C)C [Compound 7-74] | < 10 | < 10 | < 10 | – | – | – | – | – |
| C[C@@H](C(=O)N[C@H]1C[C@@H](C#Cc2cnc(Nc3cccc(F)c3)nc2NCCCF)C1)N(C)C(=O)/C=C/CN(C)C [Compound 15-13, (E)-4-(Dimethylamino)-N—((S)-1-(((1S,3R)-3-((2-((3-fluorophenyl)amino)-4-((3-fluoropropyl)amino)pyrimidin-5-yl)ethynyl)cyclobutyl)amino)-1-oxopropan-2-yl)-N-methyl-2-butenamide] | < 10 | < 10 | < 10 | – | – | – | – | – |
| CCCNc1nc(NCCc2ccncc2)ncc1C(=O)Nc1cccc(NC(=O)CNC(=O)/C=C/CN2CCN(C)CC2)c1 [Compound 2-14] | < 10 | 10 to 100 | 10 to 100 | – | – | – | – | – |
| CCCNc1nc(Nc2ccc(C#N)cc2)ncc1C#CCNC(=O)CCCNC(=O)/C=C/CN(C)C [Compound 7-91] | < 10 | 100 to 1000 | 100 to 1000 | – | – | – | – | – |
| CCCNc1nc(Nc2cccc(F)c2)ncc1C#CCCCNC(=O)[C@H](C)N(C)C(=O)/C=C/CN(C)C [Compound 7-1, (S,E)-4-(dimethylamino)-N-(1-((5-(2-((3-fluorophenyl)amino)-4-(propylamino)pyrimidin-5-yl)-4-pentyn-1-yl)amino)-1-oxopropan-2-yl)-N-methyl-2-butenamide] | < 10 | < 10 | < 10 | – | – | – | – | – |
| C=CC(=O)N(C)CC(=O)NC(CC)CCNC(=O)c1cnc(NCCc2ccncc2)nc1NCCC (stereo not drawn) [Compound 1-7] | < 10 | < 10 | 10 to 100 | – | – | – | – | – |
| CCCNc1nc(Nc2ccc3c(OC)nn(C)c3c2)ncc1C#CCCCNC(=O)[C@H](C)N(C)C(=O)/C=C/CN(C)C [Compound 22-26] | – | – | – | < 10 | 10 to 100 | 10 to 100 | – | – |
| COc1ccc(Nc2nc(NC3CC3)ncc2C#CCCCNC(=O)[C@H](C)N(C)C(=O)/C=C/CN(C)C)cn1 [Compound 22-24] | – | – | – | 10 to 100 | 10 to 100 | 10 to 100 | – | – |
| C=CC(=O)NCC(=O)Nc1cc(NC(=O)c2cnc(NCCc3ccncc3)nc2NCCC)c(C)cc1C [Compound 2-6] | 10 to 100 | 10 to 100 | 10 to 100 | – | – | – | – | – |
| CCCNc1nc(Nc2ccc3c(c2)c(N(C)C)nn3C)ncc1C#CCCCNC(=O)[C@H](C)N(C)C(=O)/C=C/CN(C)C [Compound 22-12] | – | – | – | < 10 | < 10 | < 10 | – | – |
| CCCNc1ncc(C#CCCCNC(=O)[C@H](C)N(C)C(=O)/C=C/CN(C)C)c(Nc2ccc(OC)cc2)n1 [Compound 21-38] | – | – | – | < 10 | < 10 | < 10 | – | – |
| CCCNc1nc(Nc2ccc(C#N)cc2)ncc1C#C[C@@H]1CCC[C@H](NC(=O)CN(C)C(=O)/C=C/CN(C)C)C1 [Compound 13-6] | < 10 | < 10 | < 10 | – | – | – | – | – |
| CCCNc1nc(Nc2ccc(F)cc2)ncc1C#C[C@H]1C[C@@H](NC(=O)[C@H](C)N(C)C(=O)/C=C/CN(C)C)C1 [Compound 13-18] | < 10 | < 10 | < 10 | – | – | – | – | – |
| CNc1nc(Nc2ccc(OC)c(F)c2)ncc1C#C[C@@H]1CCC[C@H](NC(=O)[C@H](C)N(C)C(=O)/C=C/CN(C)C)C1 [Compound 21-32, (E)-4-(Dimethylamino)-N—((S)-1-(((1S,3R)-3-((2-((3-fluoro-4-methoxyphenyl)amino)-4-(methylamino)pyrimidin-5-yl)ethynyl)cyclohexyl)amino)-1-oxopropan-2-yl)-N-methyl-2-butenamide] | – | – | – | < 10 | < 10 | < 10 | – | – |
| CCCNc1nc(Nc2ccc3cn[nH]c3c2)ncc1C#CCCCNC(=O)[C@@H]1CCCN1C(=O)/C=C/CN(C)C [Compound 22-63] | – | – | – | < 10 | < 10 | < 10 | – | – |
